The record followed here is patent US11661440B2 (priority 2015, dated 2023).

The test system of assay [1] is NMDA receptor. Type of assay: cell-based, rat.
The target in assay [2] is NR1a/NR2B (GluN1-a/GluN2B) recombinant NMDA receptor (Rattus norvegicus, UniProt Q00960). Type of assay: cell-based.
Assay [3] concerns the target NR1a/NR2A (GluN1-a/GluN2A) recombinant NMDA receptor (Rattus norvegicus, UniProt Q00959). Type of assay: cell-based.

Ends that are not written are not given here.

Chain of NR1a/NR2B (GluN1-a/GluN2B) recombinant NMDA receptor (Q00960 whole entry, looked up): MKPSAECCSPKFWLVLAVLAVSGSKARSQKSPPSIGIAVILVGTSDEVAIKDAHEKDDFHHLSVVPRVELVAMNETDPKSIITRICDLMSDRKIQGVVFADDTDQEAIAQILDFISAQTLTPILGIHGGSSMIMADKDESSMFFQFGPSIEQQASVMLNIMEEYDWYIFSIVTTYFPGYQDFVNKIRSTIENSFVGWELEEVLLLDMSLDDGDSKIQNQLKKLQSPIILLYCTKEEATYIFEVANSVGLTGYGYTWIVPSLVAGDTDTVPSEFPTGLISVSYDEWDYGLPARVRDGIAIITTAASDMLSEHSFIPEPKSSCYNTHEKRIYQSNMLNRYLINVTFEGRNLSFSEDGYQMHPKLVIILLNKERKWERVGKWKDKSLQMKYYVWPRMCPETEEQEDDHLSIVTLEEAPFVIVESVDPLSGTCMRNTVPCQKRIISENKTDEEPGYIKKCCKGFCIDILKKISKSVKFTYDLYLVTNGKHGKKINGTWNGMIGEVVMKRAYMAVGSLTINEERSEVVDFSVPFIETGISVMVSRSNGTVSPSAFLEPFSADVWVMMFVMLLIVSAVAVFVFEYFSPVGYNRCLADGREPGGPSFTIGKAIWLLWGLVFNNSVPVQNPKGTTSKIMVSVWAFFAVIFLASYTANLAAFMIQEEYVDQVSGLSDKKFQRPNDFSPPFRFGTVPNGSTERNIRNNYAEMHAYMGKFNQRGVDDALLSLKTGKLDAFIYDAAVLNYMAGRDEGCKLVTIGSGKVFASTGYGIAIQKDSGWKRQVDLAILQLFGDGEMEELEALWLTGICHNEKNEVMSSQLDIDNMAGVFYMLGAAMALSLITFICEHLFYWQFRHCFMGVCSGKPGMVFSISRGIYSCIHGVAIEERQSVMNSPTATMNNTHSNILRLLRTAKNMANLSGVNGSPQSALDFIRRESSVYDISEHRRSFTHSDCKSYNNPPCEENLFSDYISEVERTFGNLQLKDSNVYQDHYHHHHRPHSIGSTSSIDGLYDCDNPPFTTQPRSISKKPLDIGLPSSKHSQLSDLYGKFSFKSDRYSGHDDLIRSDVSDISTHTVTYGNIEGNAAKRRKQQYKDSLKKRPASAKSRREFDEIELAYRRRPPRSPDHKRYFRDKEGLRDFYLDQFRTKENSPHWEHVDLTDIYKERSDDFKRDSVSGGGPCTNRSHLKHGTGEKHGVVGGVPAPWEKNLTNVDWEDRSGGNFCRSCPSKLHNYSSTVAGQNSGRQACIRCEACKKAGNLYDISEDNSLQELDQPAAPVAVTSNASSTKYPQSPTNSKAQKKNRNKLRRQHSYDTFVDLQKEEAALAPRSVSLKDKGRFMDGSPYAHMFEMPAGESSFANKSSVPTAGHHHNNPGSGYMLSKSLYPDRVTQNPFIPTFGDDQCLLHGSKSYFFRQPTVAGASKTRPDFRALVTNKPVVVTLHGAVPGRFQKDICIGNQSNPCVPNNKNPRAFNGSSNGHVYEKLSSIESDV
Chain of NR1a/NR2A (GluN1-a/GluN2A) recombinant NMDA receptor (Q00959 whole entry, looked up): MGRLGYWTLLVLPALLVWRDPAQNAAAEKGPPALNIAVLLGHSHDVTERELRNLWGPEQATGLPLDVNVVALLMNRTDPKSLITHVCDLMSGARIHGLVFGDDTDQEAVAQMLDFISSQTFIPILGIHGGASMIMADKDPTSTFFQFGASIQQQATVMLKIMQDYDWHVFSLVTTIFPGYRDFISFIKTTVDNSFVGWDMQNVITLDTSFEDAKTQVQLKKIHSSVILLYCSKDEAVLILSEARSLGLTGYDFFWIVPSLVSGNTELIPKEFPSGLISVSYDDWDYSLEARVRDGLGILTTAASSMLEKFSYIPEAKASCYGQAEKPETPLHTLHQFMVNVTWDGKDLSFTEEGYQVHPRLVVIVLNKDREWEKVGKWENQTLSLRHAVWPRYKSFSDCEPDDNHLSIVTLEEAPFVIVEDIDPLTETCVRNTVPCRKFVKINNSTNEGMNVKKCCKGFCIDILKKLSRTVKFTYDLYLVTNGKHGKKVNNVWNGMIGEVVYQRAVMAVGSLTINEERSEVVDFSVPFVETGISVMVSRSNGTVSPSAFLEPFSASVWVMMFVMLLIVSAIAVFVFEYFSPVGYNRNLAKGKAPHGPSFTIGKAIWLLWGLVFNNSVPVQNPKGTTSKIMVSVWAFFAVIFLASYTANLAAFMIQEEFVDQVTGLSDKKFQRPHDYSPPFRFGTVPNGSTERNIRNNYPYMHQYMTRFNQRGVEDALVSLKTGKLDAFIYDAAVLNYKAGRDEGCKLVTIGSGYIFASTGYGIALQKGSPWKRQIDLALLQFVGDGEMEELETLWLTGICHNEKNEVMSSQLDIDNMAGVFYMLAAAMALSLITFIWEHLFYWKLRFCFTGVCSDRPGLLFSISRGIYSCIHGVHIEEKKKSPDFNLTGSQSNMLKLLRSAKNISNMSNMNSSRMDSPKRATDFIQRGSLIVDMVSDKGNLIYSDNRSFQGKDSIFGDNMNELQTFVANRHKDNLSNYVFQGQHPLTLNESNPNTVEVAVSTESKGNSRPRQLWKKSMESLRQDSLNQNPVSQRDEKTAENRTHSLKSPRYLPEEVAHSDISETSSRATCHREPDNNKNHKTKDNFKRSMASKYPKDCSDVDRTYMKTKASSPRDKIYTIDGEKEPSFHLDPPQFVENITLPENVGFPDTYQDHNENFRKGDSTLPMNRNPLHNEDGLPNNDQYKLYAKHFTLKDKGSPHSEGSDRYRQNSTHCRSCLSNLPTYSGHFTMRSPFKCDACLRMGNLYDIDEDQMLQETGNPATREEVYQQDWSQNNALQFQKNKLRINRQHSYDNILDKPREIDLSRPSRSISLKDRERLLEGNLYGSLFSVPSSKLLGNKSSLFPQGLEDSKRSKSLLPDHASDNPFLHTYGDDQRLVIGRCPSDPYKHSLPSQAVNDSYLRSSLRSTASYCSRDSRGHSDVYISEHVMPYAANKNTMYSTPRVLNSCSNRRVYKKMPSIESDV

As a reminder, the IC50 is the concentration needed to halve the response being measured. Take GEDDLQDNQDLIRDKSN [SEQ ID NO: 2]: the “inhibition in some registers” value in assay [1] was roughly 40%. Further, the IC50 in assay [1] (read-out: IC50 for inhibition of NMDA receptor-evoked current (dose-response curve)) came to 202 µM. In assay [2], the “blocking of evoked current (in words)” value is “Almost total blocking of the current”; the “selectivity between GluN2B and GluN2A subunits (in words)” value is listed as “selectivity for subunit GluN2B rather than GluN2A”. Further, the “reduction of evoked current (in words)” value in assay [3] was “slight reduction in current”.
